# Values of other authors, collected in patent EP0313535B1 (Bristol-Myers Squibb Company, priority 1987, dated 1989).
# How the values were obtained:
# [1] = metabolite of buspirone
smiles,measurement,setting,value
O=C1CC2(CCCC2)CC(=O)N1CCCCN1CCN(c2ncc(O)cn2)CC1 [5-OH-buspirone],pharmacological activity,[1],no pharmacological activity
"c1cnc(N2CCNCC2)nc1 [Example 1-PP, 1-(2-pyrimidinyl)-piperazine]",activity relative to buspirone per se,[1],20-25%
"O=C1CC2(CCCC2)CC(=O)N1CCCCN1CCN(c2ncccn2)CC1 [buspirone, Buspirone]",biological half life,in man (Mayol et al. 1985),2-11 hours
same,variation of the maximum plasma concentration,interindividual (Gammans et al. 1986),up to 10 fold
